Test results from patent US8809347B2, “Bicyclic aryl and bicyclic heteroaryl substituted triazoles useful as AXL inhibitors” (Rigel Pharmaceuticals, Inc., priority 2006, dated 2014).

Target: T1, Axl (Homo sapiens, UniProt P30530)
T1 construct: Cells: Hela cells; endogenous in cells; host or cells: HeLa cells
T1 sequence (P30530 26-894): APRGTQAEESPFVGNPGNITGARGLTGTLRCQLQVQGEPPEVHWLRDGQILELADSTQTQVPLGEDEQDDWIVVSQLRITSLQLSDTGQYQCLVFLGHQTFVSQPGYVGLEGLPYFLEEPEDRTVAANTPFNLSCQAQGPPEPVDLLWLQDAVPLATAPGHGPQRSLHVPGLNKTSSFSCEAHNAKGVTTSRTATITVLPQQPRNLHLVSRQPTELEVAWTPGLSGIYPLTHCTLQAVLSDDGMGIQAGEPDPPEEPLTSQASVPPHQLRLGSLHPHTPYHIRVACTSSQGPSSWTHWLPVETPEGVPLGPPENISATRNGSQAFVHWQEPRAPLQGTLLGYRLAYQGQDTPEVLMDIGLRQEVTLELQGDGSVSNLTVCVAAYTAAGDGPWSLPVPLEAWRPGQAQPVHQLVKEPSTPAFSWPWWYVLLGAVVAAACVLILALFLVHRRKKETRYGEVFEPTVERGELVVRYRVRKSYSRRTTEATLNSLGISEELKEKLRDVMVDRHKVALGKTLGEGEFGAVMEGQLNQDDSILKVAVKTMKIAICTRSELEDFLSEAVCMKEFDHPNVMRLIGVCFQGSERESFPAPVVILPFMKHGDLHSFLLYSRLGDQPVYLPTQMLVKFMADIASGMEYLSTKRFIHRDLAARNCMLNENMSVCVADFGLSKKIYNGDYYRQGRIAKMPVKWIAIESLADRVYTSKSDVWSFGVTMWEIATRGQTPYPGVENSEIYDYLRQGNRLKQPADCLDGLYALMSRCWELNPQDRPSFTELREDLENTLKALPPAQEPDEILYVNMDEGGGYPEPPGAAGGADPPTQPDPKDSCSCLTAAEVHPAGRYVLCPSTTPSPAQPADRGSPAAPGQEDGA
Test: Phospho-Akt in-cell Western assay (inhibition of Axl activity)
Type: cell-based
Conditions: Hela cells; 1 hr pre-treatment; stimulation by Axl-antibody cross-linking; phospho-Akt chemiluminescence normalized to relative cell number
Method: The compounds of the invention were tested in the following assay for their ability to inhibit Axl activity.
Phospho-Akt in-Cell Western Assay
• Cell culture plate: 96 well assay plate (Corning 3610), white, clear bottom, tissue-culture treated. • Cells: Hela cells. • Starvation medium: For Axl stimulation: 0.5% FCS (fetal calf serum) in DMEM, plus Axl/Fc (extracellular domain of AXL fused to immunoglobulin Fc region) (R&D, 154-AL) 500 ng/mL. • For EGF (epidermal growth factor) stimulation: 0.5% FCS in DMEM (Dulbecco's modified Eagles medium). • Poly-L-Lysine 0.01% solution (the working solution): […], dilute In PBS (phosphate buffered saline). • Axl antibody cross-linking: • 1st: Mouse anti-Axl (R&D, MAB154). • 2nd: Biotin-SP-conjugated AffiniPure goat anti-mouse IgG (H+ L) (Jackson ImmunoResearch #115-065-003). • Fixing buffer: 4% formaldehyde in PBS. • Wash buffer: 0.1% TritonX-100 in PBS. • Quenching buffer: 3% H2O2, 0.1% Azide in wash buffer, Azide and hydrogen peroxide (H2O2) are added fresh. • Blocking buffer: 5% BSA in TBST (tris buffered saline plus 0.1% Tween 20). • Primary antibody: Rabbit anti-human Phospho-Akt antibody (Cell Signaling 9271): 1×250 diluted in blocking buffer. • Secondary antibody: HRP (horse radish peroxidase)-conjugated Goat anti-Rabbit secondary, stock solution: Jackson ImmunoResearch (Goat anti-Rabbit HRP, #111-035-144) 1:1 diluted in glycerol, store at −20° C. The working solution: 1×2000 dilution of stock in blocking buffer. • Chemiluminescent working solution (Pierce, 37030): SuperSignal ELISA (enzyme linked immunosorbant assay) Pico Chemiluminescent substrate. • Crystal Violet solution: Stock: 2.5% Crystal violet in methanol, filtered and kept at ambient temperature. The working solution: dilute the stock 1:20 with PBS immediately before use. • 10% SDS: working solution: 5% SDS (sodium dodecylsulfate), diluted in PBS Methods: Day 1:
A 96 well TC (tissue culture treated) plate was coated with 10 μg/mL poly-L-Lysine at 37° C. for 30 min, washed twice with PBS, and air-dried for 5 minutes before cells were added. Hela cells were seeded at 10,000 cells/well and the cells were starved in 100 μL starvation medium containing Axl/Fc for 24 hrs.
The cells were pre-treated with test compounds by adding 100 μL of 2× test compound to the starvation medium on the cells. The cells were incubated at 37° C. for 1 hr before stimulation.
The cells were stimulated by Axl-antibody cross-linking as follows: A 5× 1st/2nd Axl antibody mixture was made (37.5 μg/mL 1st/100 μg/mL 2nd) in starvation medium and nutated at 4° C. with thorough mixing for 1-2 hours for clustering. The resulting mix was warmed to 37° C. 50 μL of 5× Axl 1st/2nd of antibody cluster was added to the cells and the cells were incubated at 37° C. for 5 min.
After 5 minutes stimulation, the plate was flicked to remove medium and the plate was tapped onto paper towels. Formaldehyde (4.0% in PBS, 100 μL) was added to fix the cells and the cells were incubated at ambient temperature for 20 min without shaking.
The cells were washed with a plate washer buffer to remove the formaldehyde solution. The plate was flicked to removed excess wash buffer and tapped onto paper towels. Quenching buffer (100 μL) was added to each well and the cells were incubated at ambient temperature for 20 minutes without shaking.
The cells were washed with a plate washer buffer to remove the quenching buffer. Blocking buffer (100 μL) was added and the cells were incubated at ambient temperature for at least an hour with gentle shaking.
The cells were washed with a plate washer buffer and diluted primary antibody (50 μL) was added to each well (blocking buffer was added to the negative control wells instead). The plates were incubated overnight at 4° C. with gentle shaking.
The wash buffer was removed, diluted secondary antibody (100 μL) was added, and the cells were incubated at ambient temperature for 1 hour with gentle shaking. […]

Row | Compound | IC50
1 | Cc1csc2c(-n3nc(Nc4ccc5c(c4)CCCN(C4CCCC4)CC5)nc3N)nc(Cl)nc12 [Compound 26, 1-(2-chloro-7-methylthieno[3,2-d]pyrimidin-4-yl)-N^3-(3-cyclopentyl-1,2,3,4,5,6-hexahydrobenzo[d]azocin-8-yl)-1H-1,2,4-triazole-3,5-diamine] | < 1000 nM
2 | Nc1nc(Nc2ccc(N3CCN(C4CC5CCC4C5)CC3)cc2)nn1-c1ncc2c(n1)CCCCCC2 (stereo not drawn) [Compound 3, N^3-(4-(4-(bicyclo[2.2.1]heptan-2-yl)piperazin-1-yl)phenyl)-1-(5,6,7,8,9,10-hexahydrocycloocta[d]pyrimidin-2-yl)-1H-1,2,4-triazole-3,5-diamine] | < 1000 nM
3 | CN1CCN(c2ccc(Nc3nc(N)n(-c4ncc5c(n4)CCCCCC5)n3)cc2)CC1 [Compound 2, 1-(5,6,7,8,9,10-hexahydrocycloocta[d]pyrimidin-2-yl)-N^3-(4-(4-methylpiperazin-1-yl)phenyl)-1H-1,2,4-triazole-3,5-diamine] | < 1000 nM
4 | CN1CCCN(c2ccc(Nc3nc(N)n(-c4ncc5c(n4)CCCCCC5)n3)cc2F)CC1 [Compound 4, N^3-(3-fluoro-4-(4-methyl-1,4-diazepan-1-yl)phenyl)-1-(5,6,7,8,9,10-hexahydrocycloocta[d]pyrimidin-2-yl)-1H-1,2,4-triazole-3,5-diamine] | < 1000 nM
5 | Nc1nc(Nc2ccc(N3CCN(C4CCCCC4)CC3)cc2)nn1-c1ncc2c(n1)CCCCCC2 [Compound 5, N^3-(4-(4-cyclohexylpiperazin-1-yl)phenyl)-1-(5,6,7,8,9,10-hexahydrocycloocta[d]pyrimidin-2-yl)-1H-1,2,4-triazole-3,5-diamine] | < 1000 nM
6 | Nc1nc(Nc2ccc3c(c2)CCN(C2CCCC2)CCC3)nn1-c1ccc(C(F)(F)F)cn1 [Compound 30, N^3-(3-cyclopentyl-1,2,3,4,5,6-hexahydrobenzo[d]azocin-9-yl)-1-(5-(trifluoromethyl)pyridin-2-yl)-1H-1,2,4-triazole-3,5-diamine] | < 1000 nM
7 | Nc1nc(Nc2ccc(N3CCC(N4CCCC4)CC3)c(F)c2)nn1-c1cc2c(nn1)CCCCCC2 [Compound 17, N^3-(3-fluoro-4-(4-(pyrrolidin-1-yl)piperidin-1-yl)phenyl)-1-(5,6,7,8,9,10-hexahydrocycloocta[c]pyridazin-3-yl)-1H-1,2,4-triazole-3,5-diamine] | < 1000 nM
8 | Cc1csc2c(-n3nc(Nc4ccc5c(c4)CCCN(C4CCCC4)CC5)nc3N)ncnc12 [Compound 41, N^3-(3-cyclopentyl-1,2,3,4,5,6-hexahydrobenzo[d]azocin-8-yl)-1-(7-methylthieno[3,2-d]pyrimidin-4-yl)-1H-1,2,4-triazole-3,5-diamine] | < 1000 nM
9 | CN1CCN(c2ccc(Nc3nc(N)n(-c4ccc5c(n4)CCCCCC5)n3)cc2)CC1 [Compound 23, 1-(5,6,7,8,9,10-hexahydrocycloocta[b]pyridin-2-yl)-N^3-(4-(4-methylpiperazin-1-yl)phenyl)-1H-1,2,4-triazole-3,5-diamine] | < 1000 nM

Second part, the molecule after the results:

Row | IC50 | Compound
10 | < 1000 nM | COc1cc2ncnc(-n3nc(Nc4ccc5c(c4)CCCN(C4CCCC4)CC5)nc3N)c2cc1OC [Compound 27, N^3-(3-cyclopentyl-1,2,3,4,5,6-hexahydro-benzo[d]azocin-8-yl)-1-(6,7-dimethoxy-quinazolin-4-yl)-1H-[1,2,4]triazole-3,5-diamine]
11 | 1000 to 10000 nM | CN(C)[C@@H]1CCN(c2ccc(Nc3nc(N)n(-c4ncc5c(n4)CCCCCC5)n3)cc2)C1 [Compound 6, (R)—N^3-(4-(3-(dimethylamino)pyrrolidin-1-yl)phenyl)-1-(5,6,7,8,9,10-hexahydrocycloocta[d]pyrimidin-2-yl)-1H-1,2,4-triazole-3,5-diamine]
12 | < 1000 nM | Nc1nc(Nc2ccc3c(c2)CCCN(C2CCCC2)CC3)nn1-c1ncnc2ccc(F)cc12 [Compound 31, N^3-(3-cyclopentyl-1,2,3,4,5,6-hexahydrobenzo[d]azocin-8-yl)-1-(6-fluoroquinazolin-4-yl)-1H-1,2,4-triazole-3,5-diamine]
13 | < 1000 nM | Cc1csc2c(-n3nc(Nc4cnc5c(c4)CCC(N4CCN(C)CC4)CCC5)nc3N)ncnc12 (stereo not drawn) [Compound 44, N^3-(7-(4-methylpiperazin-1-yl)-5,6,7,8,9,10-hexahydrocycloocta[b]pyridin-3-yl)-1-(7-methylthieno[3,2-d]pyrimidin-4-yl)-1H-1,2,4-triazole-3,5-diamine]
14 | < 1000 nM | Nc1nc(Nc2ccc(N3CCC(N4CCCC4)CC3)c(F)c2)nn1-c1ncc2c(n1)CCCCCC2 [Compound 10, N^3-(3-fluoro-4-(4-(pyrrolidin-1-yl)piperidin-1-yl)phenyl)-1-(5,6,7,8,9,10-hexahydrocycloocta[d]pyrimidin-2-yl)-1H-1,2,4-triazole-3,5-diamine]
15 | < 1000 nM | CN1CCN(c2ccc(Nc3nc(N)n(-c4ncnc5c4CCCCCC5)n3)cc2)CC1 [Compound 21, 1-(5,6,7,8,9,10-hexahydrocycloocta[d]pyrimidin-4-yl)-N^3-(4-(4-methylpiperazin-1-yl)phenyl)-1H-1,2,4-triazole-3,5-diamine]
16 | < 1000 nM | Cc1csc2c(-n3nc(Nc4ccc5c(c4)C(=O)NCCCC5)nc3N)nc(Cl)nc12 [Compound 48, N^3-(1-oxo-1,2,3,4,5,6-hexahydrobenzo[c]azocin-9-yl)-1-(2-chloro-7-methylthieno[3,2-d]pyrimidin-4-yl)-1H-1,2,4-triazole-3,5-diamine]
17 | 1000 to 10000 nM | CN(C)[C@H]1CCN(c2ccc(Nc3nc(N)n(-c4ncc5c(n4)CCCCCC5)n3)cc2)C1 [Compound 7, (S)—N^3-(4-(3-(dimethylamino)pyrrolidin-1-yl)phenyl)-1-(5,6,7,8,9,10-hexahydrocycloocta[d]pyrimidin-2-yl)-1H-1,2,4-triazole-3,5-diamine]
18 | 1000 to 10000 nM | CN1CCN(Cc2ccc(Nc3nc(N)n(-c4ncc5c(n4)CCCCCC5)n3)cc2)CC1 [Compound 9, 1-(5,6,7,8,9,10-hexahydrocycloocta[d]pyrimidin-2-yl)-N^3-(4-((4-methylpiperazin-1-yl)methyl)phenyl)-1H-1,2,4-triazole-3,5-diamine]
